According to ChEMBL document CHEMBL4190215, “Ochracenes A-I, Humulane-Derived Sesquiterpenoids from the Antarctic Fungus Aspergillus ochraceopetaliformis” (J Nat Prod, 2017):
The source made the active and inactive calls. The rule behind the calls is not given here.

Legend:
U-937 [1] = assay: Cytotoxicity against human U937 cells assessed as reduction in cell viability after 72 hrs by CCK-8 assay; assay type: functional, cell-based; details: U-937, 72 h
HT-29 [2] = assay: Cytotoxicity against human HT-29 cells assessed as reduction in cell viability after 72 hrs by CCK-8 assay; assay type: functional, cell-based; details: HT-29, 72 h
HT-29 [3] = assay: Cytotoxicity against human HT-29 cells assessed as reduction in cell viability up to 100 uM after 72 hrs by CCK-8 assay; assay type: functional, cell-based
Influenza A virus [4] = assay: Antiviral activity against influenza A virus H1N1 assessed as inhibition of virus-induced cytopathic effect up to 100 uM after 48 hrs by crystal violet staining based assay; assay type: functional, organism-based
K562 = assay: Cytotoxicity against human K562 cells assessed as reduction in cell viability up to 100 uM after 72 hrs by CCK-8 assay; assay type: functional, cell-based
A549 = assay: Cytotoxicity against human A549 cells assessed as reduction in cell viability up to 100 uM after 72 hrs by CCK-8 assay; assay type: functional, cell-based
U-937 [5] = assay: Cytotoxicity against human U937 cells assessed as reduction in cell viability up to 100 uM after 72 hrs by CCK-8 assay; assay type: functional, cell-based
HL-60 = assay: Cytotoxicity against human HL60 cells assessed as reduction in cell viability up to 100 uM after 72 hrs by CCK-8 assay; assay type: functional, cell-based
MCF7 = assay: Cytotoxicity against human MCF7 cells assessed as reduction in cell viability up to 100 uM after 72 hrs by CCK-8 assay; assay type: functional, cell-based
DU-145 = assay: Cytotoxicity against human DU145 cells assessed as reduction in cell viability up to 100 uM after 72 hrs by CCK-8 assay; assay type: functional, cell-based
Influenza A virus [6] = assay: Antiviral activity against influenza A virus H3N2 assessed as inhibition of virus-induced cytopathic effect up to 100 uM after 48 hrs by crystal violet staining based assay; assay type: functional, organism-based
HeLa = assay: Cytotoxicity against human HeLa cells assessed as reduction in cell viability up to 100 uM after 72 hrs by CCK-8 assay; assay type: functional, cell-based
RAW264.7 = assay: Inhibition of LPS-induced NO production in mouse RAW264.7 cells after 24 hrs by Griess assay; assay type: functional, cell-based; details: RAW264.7, 24 h

| SMILES | IC50 (U-937 [1]) [µM] | IC50 (HT-29 [2]) [µM] | Activity (HT-29 [3]) | inhibition (Influenza A virus [4]) | Activity (K562) | Activity (A549) | Activity (U-937 [5]) | Activity (HL-60) | Activity (MCF7) | Activity (DU-145) | inhibition (Influenza A virus [6]) | Activity (HeLa) | IC50 (RAW264.7) [µM] |
| --- | --- | --- | --- | --- | --- | --- | --- | --- | --- | --- | --- | --- | --- |
| CC(=O)O[C@H]1C(=O)[C@@]2(C)[C@H]([C@H](OC(=O)c3ccccc3)[C@]3(O)C[C@H](OC(=O)[C@H](O)[C@@H](NC(=O)c4ccccc4)c4ccccc4)C(C)=C1C3(C)C)[C@]1(OC(C)=O)CO[C@@H]1C[C@@H]2O [PACLITAXEL] | 0.0017 | 0.003 |  |  |  |  |  |  |  |  |  |  |  |
| C[C@H]1CC[C@]2(C)C(=CCC[C@H]2O)C=C1CO |  |  | inactive | inactive | inactive | inactive | inactive | inactive | inactive | inactive | inactive | inactive |  |
| CC1=CC([C@@H](CCC(=O)O)C(=O)O)=C(C)CC[C@@H]1C |  |  | inactive | inactive | inactive | inactive | inactive | inactive | inactive | inactive | inactive | inactive | 18.3 |
| C[C@H]1CC[C@@]2(C)C=CC(=O)C=C2C=C1C(=O)O |  |  | inactive | inactive | inactive | inactive | inactive | inactive | inactive | inactive | inactive | inactive |  |
| C[C@H]1CC[C@@]2(C)C=CC(=O)C=C2C=C1C=O |  |  | inactive | inactive | inactive | inactive | inactive | inactive | inactive | inactive | inactive | inactive |  |
| CC1=CC([C@@H](CCCO)C(=O)O)=C(C)CC[C@@H]1C |  |  | inactive | inactive | inactive | inactive | inactive | inactive | inactive | inactive | inactive | inactive | 14.6 |
| COC(OC)C1=CC2=CC(=O)C=C[C@]2(C)CC[C@@H]1C |  |  | inactive | inactive | inactive | inactive | inactive | inactive | inactive | inactive | inactive | inactive |  |
| C[C@H]1CC[C@@]2(C)C=CC(=O)C=C2C=C1CO |  |  | inactive | inactive | inactive | inactive | inactive | inactive | inactive | inactive | inactive | inactive |  |
| C[C@@H]1C[C@H]2[C@@H]3CCC4=CC(=O)C=C[C@]4(C)[C@@]3(F)[C@@H](O)C[C@]2(C)[C@@]1(O)C(=O)CO [DEXAMETHASONE] |  |  |  |  |  |  |  |  |  |  |  |  | 2.5 |
| CC1=CC[C@@]2(C)[C@H](O)CC[C@@H](C(=O)O)[C@@H]2C=C1C |  |  | inactive | inactive | inactive | inactive | inactive | inactive | inactive | inactive | inactive | inactive |  |
| C[C@H]1CC[C@]2(C)C(=CCC[C@H]2O)C=C1C(=O)O |  |  | inactive | inactive | inactive | inactive | inactive | inactive | inactive | inactive | inactive | inactive |  |
